# According to patent publication US12629376B2, “Composition for use in the treatment of ApoL1-associated disease” (RAMBAM MED-TECH LTD., priority 2020, dated 2026):
# Key:
# [1] = test system: ApoL1-G1-induced T-REx-293 stable cell line; experiment: ApoL1-G1-induced cell viability assay (CellTiter-Glo); format: cell-based, human; conditions: for viability of ApoL1-G1 expressing cells: FIG. 1, 16 hours incubation, 0.08-10 μM, 1 ng/ml Doxycycline, luminescence live-cell count; for cell protective effect against ApoL1 toxicity: cell-based high throughput screening of 200,000 compounds, doxycycline-induced ApoL1-G1 T-REx-293 cells; for cell protective effect against ApoL1 toxicity / cell toxicity: 10 μM; for cell toxicity: high throughput screening, T-REx-293 cells
# Experimental: ApoL1-G1-induced T-REx-293 stable cell line was generated by introducing Flag-tagged human G1 ApoL1 variant DNA (with African genomic sequence background) into the pcDNA4/TO plasmid, which yield expression upon Doxycycline addition. Cells were cultured in DMEM (Gibco, 41965-039) supplemented with 10% FBS, 1% penicillin-streptomycin at 37° C.
# In order to estimate the effect of compounds 1, 3 and 7 on ApoL1-induced cells a cell viability assay was performed as following: cells were seeded at density 23K cells per well (96-well plate). Prior to seeding, wells were coated with Fibronectin (Biological industries, 03-090-1-05) for 1 hour at 37° C. On the following day, cells were switched to the same growth medium but containing 1 ng/ml Doxycycline (Sigma, D9891) with different concentrations of compounds 1, 3 or 7, for 16 hours. Then, cells were subjected to viability assay according to manufacturer's instructions, using CellTiter-Glo luminescent cell viability assay kit (Promega, G7570). The plate was read using Infinite 200 PRO for luminescence, which indicated live-cell count.
# Induction of ApoL1-G1 variant by doxycycline causes toxicity in T-REx-293 cell line. In order to identify potential inhibitors of ApoL1 toxicity, a cell-based high throughput screening of 200,000 chemical compounds was performed. Cells were incubated with a compound solution (at 10 μM concentration).
# T-REx-293 cells = experiment: cell toxicity assay for anti-proliferative effect (Cell-Titer Glo); format: cell-based; conditions: FIG. 2, 10 μM, 16 hours
# Experimental: T-REx-293 cells were seeded at a density of 25K cells/well on fibronectin in 96-well plates and grown in DMEM with 10% FBS, 1% P/S medium. 24 hours post-seeding medium was changed to a fresh medium comprising the tested compounds (KS-1, KS-2, or KS-8) at a concentration of 5-10 μM. Non-treated cells were used as a negative control. After 16 hours one plate of the cells was taken for cell viability test using Cell-Titer Glo reagent (Promega). Cells on the other plate were imaged using Incucyte ZOOM system.
Structure (SMILES),viability of ApoL1-G1 expressing cells [1],cell protective effect against ApoL1 toxicity [1],cell toxicity [1],"cell count determined via luminescence signal (relative light units, RLU) versus non-treated cells (T-REx-293 cells)"
Cc1c(C)n(Cc2ccc(Br)cc2)c(=O)n(Cc2ccc(Br)cc2)c1=O [Compound 1],concentration dependent viability increase,highest cell protective effect,without exhibiting a significant cell toxicity,
O=c1c2ccccc2n(Cc2ccc(Cl)cc2)c(=O)n1Cc1cccs1 [KS-2],,,,lower
O=c1c2ccccc2n(Cc2ccc(Cl)cc2)c(=O)n1Cc1ccc(Cl)cc1 [Compound 3],concentration dependent viability increase,highest cell protective effect,without exhibiting a significant cell toxicity,
O=c1c2ccccc2n(Cc2ccc(Cl)cc2)c(=O)n1C1CC=CC1 [KS-8],,,,lower
COc1ccccc1C(=O)Nc1cccc(N2CCC(NC(C)c3cnn(-c4ccccc4)c3)CC2)c1 (stereo not drawn) [Compound 7],concentration dependent viability increase,highest cell protective effect,without exhibiting a significant cell toxicity,
O=c1c2ccccc2n(Cc2ccncc2)c(=O)n1Cc1ccc(Cl)cc1 [KS-1],,,,lower
